For data set [1], the system named is Apis mellifera. The note with it: acute; dermal; mortality.
Data set [2] relates to Daphnia magna. The following applies: chronic/long-term.
In data set [3] the test system is Canidae. The following applies: chronic; duration: 1 years; oral; Dog Other; body weight.
Data set [4] has as its system Typhlodromus pyri. The following applies: not reported; mortality.
For data set [5], the system named is Oncorhynchus mykiss.
The test system of data set [6] is Rattus norvegicus. The note with it: acute; mortality.
Data set [7] deals with Bird. The note with it: chronic/long-term; mortality.
For data set [8], the system named is Oryctolagus sp.
The test system of data set [9] is Tagia sp.

Where only a bound is given, the exact number is not on record here.

From EPA's ToxValDB 9.5 (doi:10.2903/j.efsa.2008.170r) come the findings set out here.

The term NOAEL denotes the highest dose or exposure tested at which no adverse effect was seen.

With `CC(=O)O.CC1CN(C2CCCCCCCCCCC2)CC(C)O1` (configuration not stated) [Dodemorph acetate], the LD50 was greater than 76.6 µg/piece in data set [1]; 4100 mg/kg in data set [6]; 9.4 mg/kg-day in [7]; 21 mg/kg-day in data set [8] (acute, mortality). Moreover, the NOEC in data set [2] was 0.08 mg/L; in [5] (chronic/long-term, duration: 28 days, growth), 0.1 mg/L; in [9] (chronic/long-term, duration: 56 days, other) it was 103 mg/kg. Further, the NOAEL was found to be 10 mg/kg-day in [3] and 40 mg/kg-day in data set [8] (developmental, development). Moreover, in data set [4], the LEL was 660 g/ha. The LC50 was 1.23 µg/mL in data set [5] (acute, duration: 96 hours, mortality) and greater than 824 mg/kg in data set [9] (acute, duration: 14 days, mortality).
